Results from patent US20200002354A1, “HEXAHYDROPYRAZINOBENZ- OR -PYRIDO-OXAZEPINES CARRYING AN OXYGEN-CONTAINING SUBSTITUENT AND USE THEREOF IN THE TREATMENT OF 5-HT2C-DEPENDENT DISORDERS” (AbbVie Deutschland GmbH & Co. KG, priority 2015, published 2020).
Structures can show the parent of a compound that is named as a salt. Where two headings read alike, the source gives them in different places.

Experiments:
[1] = target: T1, 5-HT2C receptor (Homo sapiens, UniProt P28335); test: Human 5-HT2C functional assay (beta-arrestin2 recruitment, U2OS_HTR2C_β-Arrestin cells); type: cell-based; conditions: for EC50: Potency (EC50 5-HT2C) in functional assay, agonism, read-out: EC50 5-HT2C; for Emax: relative efficacy vs maximal effect induced by 5-HT (defined as 100%)
T1 construct: host or cells: U2OS
T1 sequence (P28335 33-458): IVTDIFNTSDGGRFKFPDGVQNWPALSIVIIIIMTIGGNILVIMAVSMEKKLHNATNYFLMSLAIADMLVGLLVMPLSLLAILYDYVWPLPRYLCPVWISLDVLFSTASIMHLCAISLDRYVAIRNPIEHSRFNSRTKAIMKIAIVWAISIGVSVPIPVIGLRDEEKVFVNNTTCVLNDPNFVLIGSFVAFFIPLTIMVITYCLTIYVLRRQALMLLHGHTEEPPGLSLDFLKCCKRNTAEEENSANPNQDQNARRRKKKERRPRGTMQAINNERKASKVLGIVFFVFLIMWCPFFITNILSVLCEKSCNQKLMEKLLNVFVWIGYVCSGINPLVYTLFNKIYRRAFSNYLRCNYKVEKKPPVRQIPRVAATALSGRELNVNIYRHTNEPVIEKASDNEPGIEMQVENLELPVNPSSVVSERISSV
T1 sequence (P32121 whole entry partner): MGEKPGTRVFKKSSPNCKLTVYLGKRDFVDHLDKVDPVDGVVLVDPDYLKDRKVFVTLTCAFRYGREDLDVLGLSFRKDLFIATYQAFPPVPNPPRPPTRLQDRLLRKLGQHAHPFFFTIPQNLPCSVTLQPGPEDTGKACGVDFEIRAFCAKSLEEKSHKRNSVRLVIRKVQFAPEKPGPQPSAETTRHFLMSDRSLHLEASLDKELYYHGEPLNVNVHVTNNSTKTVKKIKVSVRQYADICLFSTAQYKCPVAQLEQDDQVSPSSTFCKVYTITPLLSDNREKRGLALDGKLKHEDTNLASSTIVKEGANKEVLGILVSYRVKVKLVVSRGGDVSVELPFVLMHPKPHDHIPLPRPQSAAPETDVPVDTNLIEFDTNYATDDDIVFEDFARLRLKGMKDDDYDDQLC
Experimental: 1. Human 5-HT2C Functional Assay
The functional activity of compounds of formula I was assayed by incubation with U2OS_HTR2C_β-Arrestin cells (DiscoverX, 93-0289C3) to induce beta-arrestin2 recruitment to the 5-HT2C receptor. The agonist-induced recruitment and proximity of the receptor and beta-arrestin2 leads to complementation and formation of active β-galactosidase. The enzyme complementation results in enzyme activity, which is measured following the termination of the agonist incubation using DiscoveRx's detection reagent, which contains a chemiluminescent substrate which produces a high intensity signal. Cells were plated and a medium-change to a 1% serum containing medium was performed 24 h later. The next day, test compounds were added and incubated for 1.5 h before addition of detection reagent.
The response produced was measured and compared with the response produced by 10 [mu]M 5-HT or the maximal effect induced by 5-HT (defined as 100%) to which it was expressed as a percentage response (relative efficacy).

[2] = target: T2, human 5-HT2A receptor (Homo sapiens, UniProt P28223); test: Human 5-HT2A functional assay (calcium mobilisation in CHO-K1 cells, FLIPR); type: cell-based; conditions: based on agonism: EC50 5-HT2A/EC50 5-HT2C
T2 construct: expressed in transfected cells; host or cells: CHO-K1
T2 sequence (P28223 whole entry): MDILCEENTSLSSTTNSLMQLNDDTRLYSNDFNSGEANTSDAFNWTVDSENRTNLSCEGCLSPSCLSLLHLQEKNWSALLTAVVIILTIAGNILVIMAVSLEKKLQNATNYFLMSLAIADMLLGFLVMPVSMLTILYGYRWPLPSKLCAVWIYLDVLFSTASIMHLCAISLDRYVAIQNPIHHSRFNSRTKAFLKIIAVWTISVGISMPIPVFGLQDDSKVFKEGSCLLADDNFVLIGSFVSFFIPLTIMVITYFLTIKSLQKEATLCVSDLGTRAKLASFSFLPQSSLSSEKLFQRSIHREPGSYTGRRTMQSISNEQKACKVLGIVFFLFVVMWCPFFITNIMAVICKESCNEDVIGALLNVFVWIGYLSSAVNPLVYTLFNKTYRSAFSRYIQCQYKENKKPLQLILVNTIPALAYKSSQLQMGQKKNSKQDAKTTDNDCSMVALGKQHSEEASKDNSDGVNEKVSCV
Experimental: 2. Human 5-HT2A Functional Assay
Functional activity on the 5-HT2A receptor was determined by testing the effect of the compounds I on calcium mobilisation in CHO-K1 cells, stably transfected with human 5-HT2A receptor. Cells were seeded into sterile black 384-well plates with clear bottom at 25,000 cells/well in a volume of 25 μl and grown for 5-6 hours at 37° C., in 5% CO2 in tissue culture medium (“Ultra CHO” by LONZA), containing 1% dialysed FCS and 50 μg/ml gentamicin (Invitrogen). After this incubation, medium was replaced by a serum free version of the same tissue culture medium followed by incubation overnight at 37° C. and in 5% CO2. Cells were then loaded with a fluorescent calcium-sensitive dye in the presence of 0.07% probenecid for an hour at 37° C., according to the manufacturer's protocol (Ca5-Assay Kit, Molecular Devices), followed by an additional 60 min incubation at room temperature. Serial compound dilutions (final concentrations of 10^−10 to 10^−5M, prepared in HBSS+50 mM HEPES) were first added to the cells alone (“first addition” to assess agonism on the 5-HT2A receptor), then after 8 min, serotonin was added to the same wells at a final concentration of 3×10^−8 M (“second addition” to see potential antagonistic effect) and the maximal calcium response was determined using a FLIPR® Tetra instrument (Molecular Devices) in each of the two steps. The relative efficacy of the compounds was calculated as a percentage of the maximal effect induced by serotonin alone (defined as 100%). To determine EC50/IC50 values, concentration-response curves were fitted using a four-parameter logistic equation (IDBS Biobookml). Kb values were calculated from IC50 values, according to Cheng & Prusoff

[3] = target: T3, human 5-HT2B receptor (Homo sapiens, UniProt P41595); test: Human 5-HT2B functional assay (calcium mobilisation in CHO-FlpIn cells, FLIPR); type: cell-based; conditions: based on agonism: EC50 5-HT2B/EC50 5-HT2C
T3 construct: expressed in transfected cells; host or cells: CHO-FlpIn
T3 sequence (P41595 whole entry): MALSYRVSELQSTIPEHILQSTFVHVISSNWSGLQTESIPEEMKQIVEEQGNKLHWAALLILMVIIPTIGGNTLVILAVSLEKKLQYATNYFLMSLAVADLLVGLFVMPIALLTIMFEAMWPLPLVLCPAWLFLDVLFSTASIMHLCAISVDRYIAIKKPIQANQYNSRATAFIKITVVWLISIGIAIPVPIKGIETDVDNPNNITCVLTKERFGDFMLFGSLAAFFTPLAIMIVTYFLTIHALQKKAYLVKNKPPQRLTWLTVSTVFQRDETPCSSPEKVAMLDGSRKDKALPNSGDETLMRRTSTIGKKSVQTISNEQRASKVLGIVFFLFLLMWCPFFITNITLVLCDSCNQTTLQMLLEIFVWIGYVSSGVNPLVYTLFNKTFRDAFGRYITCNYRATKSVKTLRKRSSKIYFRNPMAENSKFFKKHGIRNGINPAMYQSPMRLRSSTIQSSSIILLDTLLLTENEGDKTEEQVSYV
Experimental: 3. Human 5-HT2B Functional Assay
Functional activity on the 5-HT2B receptor was determined by testing the effect of the compounds I on calcium mobilisation in CHO-FlpIn cells, stably transfected with human 5-HT2B receptor. Cells were seeded into sterile black 384-well plates with clear bottom at 30,000 cells/well in a volume of 25 μl and grown overnight at 37° C., in 5% CO2 in tissue culture medium (“CHO-S-SFM II” by Invitrogen), containing 1% dialysed FCS and 50 μg/ml gentamicin (Invitrogen). On the next morning, medium was replaced by a serum free version of the same tissue culture medium for a further incubation for 4 hours at 37° C. and in 5% CO2. Cells were then loaded with a fluorescent calcium-sensitive dye in the presence of 0.07% probenecid for an hour at 37° C., according to the manufacturer's protocol (Ca5-Assay Kit, Molecular Devices), followed by an additional 60 min incubation at room temperature. Serial compound dilutions (final concentrations of 10^−10 to 10^−5M, prepared in HBSS+50 mM HEPES) were first added to the cells alone (“first addition” to assess agonism on the 5-HT2B receptor), then after 8 min, serotonin was added to the same wells at a final concentration of 10^−8 M (“second addition” to see potential antagonistic effect) and the maximal calcium response was determined using a FLIPR® Tetra instrument (Molecular Devices) in each of the two steps. The relative efficacy of the compounds was calculated as a percentage of the maximal effect induced by serotonin alone (defined as 100%). To determine EC50/IC50 values, concentration-response curves were fitted using a four-parameter logistic equation (IDBS Biobookml). Kb values were calculated from IC50 values, according to Cheng & Prusoff

[4] = Metabolic stability in human liver microsomes, unbound intrinsic clearance; type: in vitro ADME; conditions: pH 7.4, unbound intrinsic clearance (human), Clint unbound = Cl int/fu mic, read-out: Cl int, mic unb. (h)
Experimental: Samples of the tested compounds (0.5 μM) were preincubated together with human liver microsomes (0.25 mg of microsomal protein/mL) in 0.05 M potassium phosphate buffer of pH 7.4 in microtiter plates at 37° C. for 5 minutes. The reaction was started by adding NADPH (1.0 mM). After 0, 5, 10, 15, 20 and 30 minutes, an aliquot was removed, the reaction was cooled and stopped by adding twice the amount of quench solution consisting of acetonitrile/methanol 1:1, and containing 0.2 μM carbutamide as internal standard. The samples were frozen until analyzed. The remaining concentration of undegraded test substance was determined by liquid chromatography-tandem mass spectrometry (LC-MS/MS). The half-life (t1/2) was determined from the gradient of the ratio of the signal of (test substance/internal standard)/unit time plot, allowing the calculation of the half-life of the test substance, assuming first order kinetics, from the decrease in the concentration of the compound with time. The microsomal clearance (mClint) was calculated as follows: mClint=((ln(2)/t ½)/Microsomal Protein Concentration (mg/ml))*1000, leading to the unit of uL/min/mg. The scaled clearance (mClin_scaled) was calculated as mCLint_scaled=m CLint*(Microsomal Yield (mg/kg BW))/1000000*60, leading to the units L/h/kg. The Microsomal Yield is defined by the specifics of the used microsomes. Calculations were modified from references: Di, The Society for Biomolecular Screening, 2003, 453-462; Obach, D M D, 1999 vol 27. N 11, 1350-1359.
Calculation of Unbound Intrinsic Clearance
C1int unbound=C1 int/fu mic

SMILES	EC50 [1] [nM]	Emax [1] [%]	Selectivity over 5-HT2A [2]	Selectivity over 5-HT2B [3]	CLint scaled at 0.5 μM ([4]; liver microsomes) [mL/min/kg]	CLint scaled at 0.5 μM ([4]; microsomes) [mL/min/kg]
COC[C@@H]1C[C@@H]2CNCCN2c2c(F)ccc(Cl)c2O1.O=C(O)/C=C/C(=O)O [Example 15, (4aR,6S)-8-Chloro-11-fluoro-6-(methoxymethyl)-2,3,4,4a,5,6-hexahydro-1H-pyrazino[2,1-d][1,5]benzoxazepine; fumaric acid]	< 20	> 70	+++ (>100)	+++ (>100)	< 83.3	–
COC[C@@H]1C[C@@H]2CNCCN2c2cccc(OC(F)F)c2O1 [Example 42, (4aR,6S)-8-(Difluoromethoxy)-6-(methoxymethyl)-2,3,4,4a,5,6-hexahydro-1H-pyrazino[2,1-d][1,5]benzoxazepine]	< 20	> 70	+ (from 10 to 30)	–	< 83.3	–
Cl.OC[C@@H]1C[C@@H]2CNCCN2c2cccc(Cl)c2O1 [Example 14, [(4aR,6S)-8-Chloro-2,3,4,4a,5,6-hexahydro-1H-pyrazino[2,1-d][1,5]benzoxazepin-6-yl]methanol hydrochloride]	20 to 200	> 70	+++ (>100)	–	–	< 83.3
Cl.OC[C@@H]1C[C@@H]2CNCCN2c2c(F)c(F)cc(Cl)c2O1 [Example 20, [(4aR,6S)-8-Chloro-10,11-difluoro-2,3,4,4a,5,6-hexahydro-1H-pyrazino[2,1-d][1,5]benzoxazepin-6-yl]methanol hydrochloride]	20 to 200	> 70	+++ (>100)	–	< 83.3	–
COC[C@@H]1C[C@@H]2CNCCN2c2cc(Cl)cc(F)c2O1 [Example 25, (4aR,6S)-10-Chloro-8-fluoro-6-(methoxymethyl)-2,3,4,4a,5,6-hexahydro-1H-pyrazino[2,1-d][1,5]benzoxazepine]	20 to 200	> 70	+++ (>100)	–	< 83.3	–
COC[C@@H]1C[C@@H]2CNCCN2c2cc(F)cc(C3CC3)c2O1.Cl [Example 49, (4aR,6S)-8-Cyclopropyl-10-fluoro-6-(methoxymethyl)-2,3,4,4a,5,6-hexahydro-1H-pyrazino[2,1-d][1,5]benzoxazepine hydrochloride]	< 20	> 70	++ (from >30 to 100)	–	< 83.3	–
COC[C@@H]1C[C@@H]2CNCCN2c2cccc(C3CC3)c2O1.Cl [Example 48, (4aR,6S)-8-Cyclopropyl-6-(methoxymethyl)-2,3,4,4a,5,6-hexahydro-1H-pyrazino[2,1-d][1,5]benzoxazepine hydrochloride]	< 20	> 70	+ (from 10 to 30)	–	< 83.3	–
COC[C@@H]1C[C@@H]2CNCCN2c2nccc(C(F)F)c2O1.O=C(O)C(F)(F)F [Example 27, (6S,7aR)-4-(Difluoromethyl)-6-(methoxymethyl)-7,7a,8,9,10,11-hexahydro-6H-pyrazino[1,2-d]pyrido[3,2-b][1,4]oxazepine; 2,2,2-trifluoroacetic acid]	20 to 200	> 70	++ (from >30 to 100)	–	–	< 83.3
COC[C@@H]1C[C@@H]2CNCCN2c2cccc(F)c2O1.Cl [Example 50, (4aR,6S)-8-Fluoro-6-(methoxymethyl)-2,3,4,4a,5,6-hexahydro-1H-pyrazino[2,1-d][1,5]benzoxazepine hydrochloride]	20 to 200	> 70	++ (from >30 to 100)	–	< 83.3	–
OC[C@@H]1C[C@@H]2CNCCN2c2cc(F)cc(Cl)c2O1 [Example 17, [(4aR,6S)-8-Chloro-10-fluoro-2,3,4,4a,5,6-hexahydro-1H-pyrazino[2,1-d][1,5]benzoxazepin-6-yl]methanol hydrochloride]	< 20	> 70	–	–	< 83.3	–
COC[C@@H]1C[C@@H]2CNCCN2c2cc(F)cc(C)c2O1.Cl [Example 41, (4aR,6S)-10-Fluoro-6-(methoxymethyl)-8-methyl-2,3,4,4a,5,6-hexahydro-1H-pyrazino[2,1-d][1,5]benzoxazepine hydrochloride]	< 20	> 70	+++ (>100)	–	< 83.3	–
Cl.OC[C@@H]1C[C@@H]2CNCCN2c2cc(F)cc(C(F)F)c2O1 [Example 23, [(4aR,6S)-8-(Difluoromethyl)-10-fluoro-2,3,4,4a,5,6-hexahydro-1H-pyrazino[2,1-d][1,5]benzoxazepin-6-yl]methanol hydrochloride]	< 20	> 70	+ (from 10 to 30)	–	< 83.3	–
COC[C@@H]1C[C@@H]2CNCCN2c2cc(OC)cc(Cl)c2O1.Cl [Example 44, (4aR,6S)-8-Chloro-10-methoxy-6-(methoxymethyl)-2,3,4,4a,5,6-hexahydro-1H-pyrazino[2,1-d][1,5]benzoxazepine hydrochloride]	20 to 200	> 70	–	++ (from >30 to 100)	< 83.3	–
COC[C@@H]1C[C@@H]2CNCCN2c2c(F)c(F)c(F)c(Cl)c2O1.Cl [Example 55, (4aR,6S)-8-Chloro-9,10,11-trifluoro-6-(methoxymethyl)-2,3,4,4a,5,6-hexahydro-1H-pyrazino[2,1-d][1,5]benzoxazepine hydrochloride]	< 20	> 70	+++ (>100)	+++ (>100)	–	–
